The values that follow come from patent publication US5830869A, “Thiadiazole amide MMP inhibitors” (priority 1997, dated 1998).

pKi: −log10 of the molar value.

The target in this test is Stromelysin (Homo sapiens, UniProt P08254). The experiment in a line: Stromelysin inhibition, in vitro particle concentration fluorescence assay (TABLE 1, MMP Inhibition Constants). Format: biochemical. Particulars: fluorescein/biotin substrate, MMP buffer pH 7.5, room temperature, 15 min preincubation with enzyme, 1-3 h with substrate. On the procedure: Inhibitory activity is evaluated in one or more of the MMP enzymes (stromelysin, gelatinase, and collagenase) in vitro using particle concentration fluorescence assay. An inhibitor binds to MMP enzymes which prevents the degradation of a substrate by stromelysin, gelatinase, or collagenase. The substrate has attached to it a fluorescein and a biotin moiety. The intact substrate then binds to an avidin-coated particle via the biotin moiety. Once the particle is washed and dried, a fluorescent signal is generated since the fluorescent group is attached to the particle. Without an inhibitor present, the substrate is degraded by MMP enzymes and the fluorescein group is removed, therefore, no fluorescent signal can be detected. Testing compounds are dissolved in DMSO to the desired concentration, then the solutions are diluted to 1:5 with MMP buffer (50 mM Tris-HCl, pH 7.5; 150 mM NaCl; 0.02% NaN3). Serial two-fold dilutions of each compound are prepared. A concentrated, activated enzyme solution is transferred into each plate of the testing compounds, and the mixture is incubated at room temperature for 15 minutes. Thawed MMP substrate is then added into all plates, and the plates are incubated in the dark for 1-3 hours at room temperature. At this point, the substrate mixture is mixed with 0.1% avidin-coated polystyrene particles. After 15 minutes, the fluorescence values are measured following filtration and washing of the beads. Ki values are then calculated.
Sequence of Stromelysin (P08254 100-477): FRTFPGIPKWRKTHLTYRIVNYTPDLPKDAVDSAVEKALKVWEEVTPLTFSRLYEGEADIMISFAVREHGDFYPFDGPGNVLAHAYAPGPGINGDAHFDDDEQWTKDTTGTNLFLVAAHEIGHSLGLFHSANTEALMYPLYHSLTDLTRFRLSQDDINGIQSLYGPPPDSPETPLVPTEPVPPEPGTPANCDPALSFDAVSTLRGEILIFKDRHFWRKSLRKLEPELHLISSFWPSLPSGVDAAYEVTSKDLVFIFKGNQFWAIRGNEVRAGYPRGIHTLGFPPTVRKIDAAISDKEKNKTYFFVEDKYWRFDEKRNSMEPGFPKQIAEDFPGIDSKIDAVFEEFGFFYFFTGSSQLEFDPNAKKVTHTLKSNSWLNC
Turning to `CC(C)(C)OC(=O)N[C@@H](Cc1ccc(NC(=O)OCc2ccccc2)cc1)C(=O)Nc1n[nH]c(=S)s1` [Example 25, (S)-[4-[3-[(4,5-dihydro-5-thioxo-1,3,4-thiadiazol-2-yl)amino]-2-[[(1,1-dimethylethoxy)carbonyl]amino]-3-oxopropyl]phenyl]carbamic acid phenylmethyl ester], the pKi is 5.61. `O=C(NC(COCc1ccccc1)C(=O)Nc1n[nH]c(=S)s1)OCc1ccccc1` (stereo not shown) [Example 8, [2-[(4,5-dihydro-5-thioxo-1,3,4-thiadiazol-2-yl)amino]-2-oxo-1-[(phenylmethoxy)methyl]ethyl]carbamic acid phenylmethyl ester] had a negative logarithm of the Ki (pKi) of 5.09. With `CCCCC(NC(=O)OCc1ccccc1)C(=O)Nc1n[nH]c(=S)s1` (stereo not shown) [Example 5, [1-[[(4,5-dihydro-5-thioxo-1,3,4-thiadiazol-2-yl)amino]carbonyl]pentyl]carbamic acid phenylmethyl ester] the figure was 5.62; with `CC(C)(C)[C@H](NC(=O)OCC1c2ccccc2-c2ccccc21)C(=O)Nc1n[nH]c(=S)s1` [Example 37, (S)-[1-[[(4,5-dihydro-5-thioxo-1,3,4-thiadiazol-2-yl)amino]carbonyl]-2,2-dimethylpropyl]carbamic acid 9H-fluoren-9-yl-methyl ester], 6.92; with `O=C(NC(CSCc1ccccc1)C(=O)Nc1n[nH]c(=S)s1)OCc1ccccc1` (stereo not shown) [Example 9, [2-[(4,5-dihydro-5-thioxo-1,3,4-thiadiazol-2-yl)amino]-2-oxo-1-[[(phenylmethyl)thio]methyl]ethyl]carbamic acid phenylmethyl ester], 5.02. With `CCC(C)(C)C(NC(=O)OC(C)(C)C)C(=O)Nc1n[nH]c(=S)s1` (stereo not shown) [Example 23, (1-(((4,5-dihydro-5-thioxo-1,3,4-thiadiazol-2-yl)amino)carbonyl)-2,2-dimethylbutyl)carbamic acid 1,1-dimethylethyl ester] the figure was 5.67. With `CCOC(=O)C(Cc1ccccc1)C(=O)Nc1n[nH]c(=S)s1` (stereo not drawn) [Example 57, ethyl α-[[(4,5-dihydro-5-thioxo-1,3,4-thiadiazol-2yl)amino]carbonyl]benzenepropanoate] the figure was 5.39. For `CC(C)(C)[C@H](NC(=O)CCc1ccccc1)C(=O)Nc1n[nH]c(=S)s1` [Example 26, (S)-N-[1-[[(4,5-dihydro-5-thioxo-1,3,4-thiadiazol-2-yl)amino]carbonyl]-2,2-dimethylpropyl]benzenpropanamide], the negative-log Ki (pKi) was 6.62. `O=C(NCC(C(=O)Nc1n[nH]c(=S)s1)c1ccccc1)OCc1ccccc1` (stereo not shown) [Example 38, [3-[(4,5-dihydro-5-thioxo-1,3,4-thiadiazol-2-yl)amino]-3-oxo-2-phenylpropyl]carbamic acid phenylmethyl ester]: the pKi is 5.64. With `O=C(CCCCc1ccccc1)NC(C(=O)Nc1n[nH]c(=S)s1)c1ccccc1` (stereo not shown) [Example 15, N-[2-[(4,5-dihydro-5-thioxo-1,3,4-thiadiazol-2-yl)amino]-2-oxo-1-phenylethyl]benzenepentanamide] the figure was 5.86; with `CCCCCCCC(NC(=O)OCc1ccccc1)C(=O)Nc1n[nH]c(=S)s1` (stereo not shown) [Example 10, [1-[[(4,5-dihydro-5-thioxo-1,3,4-thiadiazol-2-yl)amino]carbonyl]octyl]carbamic acid phenylmethyl ester], 5.20; with `O=C(NCCC[C@H](NC(=O)OCc1ccccc1)C(=O)Nc1n[nH]c(=S)s1)OCc1ccccc1` [Example 31, (S)-[1-[[(4,5-dihydro-5-thioxo-1,3,4-thiadiazol-2-yl)amino]carbonyl]-1,4-butanediyl]bis carbamic acid bis(phenylmethyl) ester], 5.55. With `O=C(NC(C(=O)Nc1n[nH]c(=S)s1)c1ccccc1)OCc1ccccc1` (stereo not shown) [Example 1, [2-[(4,5-dihydro-5-thioxo-1,3,4-thiadiazol-2-yl)amino]-2-oxo-1-phenylethyl]carbamic acid, phenylmethyl ester] the figure was 5.92; with `O=C(N[C@@H](Cc1ccccc1)C(=O)Nc1n[nH]c(=S)s1)OCc1ccccc1` [Example 34, (S)-[2-[(4,5-dihydro-5-thioxo-1,3,4-thiadiazol-2-yl)amino]-2-oxo-1-(phenylmethyl)ethyl]carbamic acid phenylmethyl ester], 5.22; with `CC(C)(C)C(CC(=O)Nc1n[nH]c(=S)s1)NC(=O)OCc1ccccc1` (stereo not shown) [Example 40, [3-[(4,5-dihydro-5-thioxo-1,3,4-thiadiazol-2-yl)amino]-3-oxo-1-(1,1-dimethylethyl)propyl]carbamic acid phenylmethyl ester], 4.95. For `CC(C)(C)[C@H](NC(=O)CCc1c(F)c(F)c(F)c(F)c1F)C(=O)Nc1n[nH]c(=S)s1` [Example 27, (S)-N-[1-[[(4,5-dihydro-5-thioxo-1,3,4-thiadiazol-2-yl)amino]carbonyl]-2,2-dimethylpropyl]-2,3,4,5,6-pentafluorobenzenepropanamide], the negative-log Ki (pKi) was 6.04. Consider `CC(C)(C)[C@H](NC(=O)Cc1c[nH]c2ccccc12)C(=O)Nc1n[nH]c(=S)s1` [Example 32], for which the pKi was 6.39. With `CCC[C@H](NC(=O)OCc1ccccc1)C(=O)Nc1n[nH]c(=S)s1` [Example 7, (S)-[1-[[(4,5-dihydro-5-thioxo-1,3,4-thiadiazol-2-yl)amino]carbonyl]butyl]carbamic acid phenylmethyl ester] the figure was 5.64; with `O=C(N[C@@H](CCc1ccccc1)C(=O)Nc1n[nH]c(=S)s1)OCc1ccccc1` [Example 2, (S)-[1-[[(4,5-dihydro-5-thioxo-1,3,4-thiadiazol-2-yl)amino]carbonyl]-3-phenylpropyl]carbamic acid phenylmethyl ester], 4.86; with `O=C(N[C@H](C(=O)Nc1n[nH]c(=S)s1)C1CCCCC1)OCc1ccccc1` [Example 12, (S)-[1-(cyclohexyl)-2-[(4,5-dihydro-5-thioxo-1,3,4-thiadiazol-2-yl)amino]-2-oxoethyl]carbamic acid phenylmethyl ester], 6.08. Compound `CC[C@H](C)[C@H](NC(=O)OCC1c2ccccc2-c2ccccc21)C(=O)Nc1n[nH]c(=S)s1` [Example 4, [S-(R*,R*)]-[1-[[(4,5-dihydro-5-thioxo-1,3,4-thiadiazol-2-yl)amino]carbonyl]-2-methylbutyl]carbamic acid 9H-fluoren-9-yl-methyl ester] had a pKi of 6.02. The result for `O=C(CC(NC(=O)COc1ccccc1)c1ccccc1)Nc1n[nH]c(=S)s1` (stereo not drawn) [Example 48, N-(4,5-dihydro-5-thioxo-1,3,4-thiadiazol-2-yl)-β-[(phenoxyacetyl)amino]benzenepropanamide] reads 6.50; that for `O=C(CCc1ccccc1)N[C@@H](Cc1c(F)c(F)c(F)c(F)c1F)C(=O)Nc1n[nH]c(=S)s1` [Example 30, (S)-α-N-(4,5-dihydro-5-thioxo-1,3,4-thiadiazol-2-yl)-2,3,4,5,6-pentafluoro-[(1-oxo-3-phenylpropyl)amino]benzenepropanamide], 6.01. Turning to `O=C(COCc1ccccc1)NC(C(=O)Nc1n[nH]c(=S)s1)c1ccccc1` (stereo not drawn) [Example 16, N-(4,5-dihydro-5-thioxo-1,3,4-thiadiazol-2-yl)-α-[[(phenylmethoxy)acetyl]amino]benzeneacetamide], the negative logarithm of the Ki (pKi) is 6.42. With `O=C(Nc1n[nH]c(=S)s1)[C@@H]1CC[C@H](C(=O)N(Cc2ccccc2)OCc2ccccc2)C1` (relative stereo) [Example 60, cis-N'-(4,5-dihydro-5-thioxo-1,3,4-thiadiazol-2-yl)-N-(phenylmethoxy)-N-(phenylmethyl)-1,3-cyclopentane dicarboxamide] the figure was 4.99; with `O=C(CC(NC(=O)c1ccccc1)c1ccccc1)Nc1n[nH]c(=S)s1` (stereo not drawn) [Example 42, β-(benzoylamino)-N-(4,5-dihydro-5-thioxo-1,3,4-thiadiazol-2-yl)benzenepropanamide], 5.87. The compound `O=C(CC(NC(=O)CCc1ccccc1)c1ccccc1)Nc1n[nH]c(=S)s1` (stereo not shown) [Example 44] gave a pKi of 6.16. With `CC(C)[C@H](NC(=O)OCc1ccccc1)C(=O)Nc1n[nH]c(=S)s1` [Example 36, (S)-[1-[[(4,5-dihydro-5-thioxo-1,3,4-thiadiazol-2-yl)amino]carbonyl]-2-methylpropyl]carbamic acid phenylmethyl ester] the figure was 5.94. `O=C(CC(NC(=O)OCC1c2ccccc2-c2ccccc21)c1ccccc1)Nc1n[nH]c(=S)s1` (stereo not shown) [Example 46, [3-[(4,5-dihydro-5-thioxo-1,3,4-thiadiazol-2-yl)amino]-3-oxo-1-phenylpropyl]carbamic acid 9H-fluoren-9-yl methyl ester] gave a negative-log Ki (pKi) of 6.36. With `CC(C)(C)OC(=O)NC(C(=O)Nc1n[nH]c(=S)s1)c1ccccc1` (stereo not shown) [Example 24, [2-[(4,5-dihydro-5-thioxo-1,3,4-thiadiazol-2-yl)amino]-2-oxo-1-phenylethyl]carbamic acid 1,1-dimethylethyl ester] the figure was 5.70; with `CC(C)(C)OC(=O)N[C@@H](Cc1c(F)c(F)c(F)c(F)c1F)C(=O)Nc1n[nH]c(=S)s1` [Example 28, (S)-[2-[(4,5-dihydro-5-thioxo-1,3,4-thiadiazol-2-yl)amino]-2-oxo-1-[(pentafluorophenyl)methyl]ethyl]carbamic acid 1,1-dimethylethyl ester], 5.65.

The pKi is the Ki on a negative log10 scale, so that one unit is a factor of ten. Low readings indicate a large Ki, high ones a small Ki.
